Laboratory results reported in US20240327387A1, “TRIAZINE DERIVATIVES FOR THE TREATMENT OF TUMOURS AND NEURODEGENERATIVE DISORDERS” (UNIVERSITA' DEGLI STUDI DI MILANO, priority 2021, published 2024).

Assays:
PD-L1 [1] = biological target: T1, PD-L1 (Homo sapiens (Human), UniProt Q9NZQ7); experiment: NMR binding assay (macromolecule-based 1D 1H NMR); details: PD-L1 10 μM, protein:ligand 1:1 and 1:10
Target sequence in this assay (Q9NZQ7 18-134): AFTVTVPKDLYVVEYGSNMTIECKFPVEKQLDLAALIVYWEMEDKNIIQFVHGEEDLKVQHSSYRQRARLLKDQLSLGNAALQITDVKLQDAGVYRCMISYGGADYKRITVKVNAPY

PD-L1 [2] = biological target: T1, PD-L1; experiment: Differential scanning calorimetry (DSC) of PD-L1; type: binding; details: PD-L1 32 μM, ligand 32 μM
Target sequence in this assay (Q9NZQ7 18-134): as above

hPD1/hPD-L1 interaction = hPD1/hPD-L1 interaction (Homo sapiens (Human), UniProt Q9NZQ7); experiment: HTRF assay of PD-1/PD-L1 interaction; type: binding
PD-L1 [3] = biological target: T1, PD-L1; details: PD-L1 versus PD-1
Target sequence in this assay (Q9NZQ7 19-290): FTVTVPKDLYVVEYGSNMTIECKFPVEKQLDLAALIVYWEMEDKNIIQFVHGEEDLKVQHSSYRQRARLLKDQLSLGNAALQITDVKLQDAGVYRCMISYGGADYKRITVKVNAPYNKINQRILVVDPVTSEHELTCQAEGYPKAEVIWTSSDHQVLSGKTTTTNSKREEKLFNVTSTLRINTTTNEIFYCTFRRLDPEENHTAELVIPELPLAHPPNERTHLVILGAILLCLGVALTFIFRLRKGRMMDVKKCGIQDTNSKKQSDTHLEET

hPD1/hPD-L1 interaction, sequence (Q9NZQ7 19-238): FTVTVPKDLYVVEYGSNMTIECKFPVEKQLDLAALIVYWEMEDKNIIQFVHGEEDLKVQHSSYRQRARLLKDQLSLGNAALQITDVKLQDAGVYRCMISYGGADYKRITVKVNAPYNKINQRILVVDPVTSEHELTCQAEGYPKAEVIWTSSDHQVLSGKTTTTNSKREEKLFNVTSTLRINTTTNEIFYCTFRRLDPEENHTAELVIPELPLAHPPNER

| SMILES | IC50 (hPD1/hPD-L1 interaction; Table 2) [µM] | also measured |
| --- | --- | --- |
| COc1nc(OCc2cccc(-c3ccccc3)c2C)ccc1CNCCNC(C)=O [BMS202] |  | formation of the ligand-PD-L1 complex (1D 1H NMR signal changes) (PD-L1 [1]): decrease in the intensity of the free protein signals; change in the Tm of the protein (ΔTm) (PD-L1 [2]): 6.5 °C; Tm of PD-L1 in the presence of ligand (PD-L1 [2]; no ligand Tm 46.5 (±0.5)): 53.0 (±0.5) ° C. |
| Cc1c(CNc2ncnc(N[C@@H](CO)C(=O)O)n2)cccc1-c1ccccc1 [Compound 83] | > 10 |  |
| COC(=O)[C@H](CO)Nc1ncnc(OCc2cccc(-c3ccccc3)c2C)n1 [Compound 76] | 0.692 |  |
| CC(=O)NCCNc1ncnc(OCc2cccc(-c3ccccc3)c2C)n1 [Compound 4] |  | formation of the ligand-PD-L1 complex (1D 1H NMR signal changes) (PD-L1 [1]): formation of the compound 4-PD-L1 complex; IC50 (hPD1/hPD-L1 interaction; HTRF): 0.115 µM; IC50 (hPD1/hPD-L1 interaction; HTRF, Table 1): 0.115 ± 0.024 µM; specific binding (PD-L1 [3]): capable of specifically binding PD-L1 and not PD-1 |
| Cc1c(CNc2ncnc(NCCNS(C)(=O)=O)n2)cccc1-c1ccccc1 [Compound 81] | > 10 |  |
| CC(=O)NCCNc1ncnc(NCc2cccc(-c3ccc4c(c3)OCCO4)c2C)n1 [Compound 84] | > 10 |  |
| COC(=O)[C@H](CO)Nc1ncnc(NCc2cccc(-c3ccccc3)c2C)n1 [Compound 82] | > 10 |  |
| Cc1c(CNc2ncnc(NCCNS(C)(=O)=O)n2)cccc1-c1ccc2c(c1)OCCO2 [Compound 85] | > 10 |  |
| CC(=O)NCCNc1ncnc(NCc2cccc(-c3ccccc3)c2C)n1 [Compound 80] | > 10 |  |
| Cc1c(COc2ncnc(N[C@@H](CO)C(=O)O)n2)cccc1-c1ccccc1 [Compound 77] | > 10 |  |
